The test system of series [1] is human primary CD4+ T cells. Kind of series: T cell activation markers CD25 and CD69. The settings on record: 24 and 72 hours; two healthy donors. It counts as cell-based. The procedure: 24. Activation markers, apoptosis and viability of primary CD4+ T cells: Activation markers, namely CD25 and CD69 were analyzed as described previously^55. Briefly, CD4+ T cells were treated with DMSO, compound, or PMA/Ionomycin for 24 and 72 hours. Cells were collected, washed with PBS and stained for 30 min at 4° C. with α-CD25-APC (17-0259-42, eBioscience) and α-CD69-FITC (11-0699-42, eBioscience). Following two washes with PBS, cells were fixed with 1% HCHO at 4° C. and analyzed by flow cytometry with Becton Dickinson Fortessa instrument. To determine percent of apoptotic cells after treatment cells were stimulated for 24 and 72 hours and stained with anti-AnnexinV-PE (BD Biosciences, cat. 556454) in the presence of 2.5 mM CaCl2 for 20 min at 4° C. Cells were analyzed by Becton Dickinson Fortessa flow cytometer. Data represents the average of six experiments performed on cells from different healthy donors. Viability of ex-vivo infected primary CD4+ cells was determined by flow cytometry on the basis of forward versus side scatter analysis. 25. FAIRE: FAIRE experiment was performed as described, with minor modifications^55. Eighteen hours prior to analysis, J-Lat 11.1 cells were treated with BAFi's where indicated. Cells were fixed for 10 min by adding formaldehyde to a final concentration of 1% at room temperature. Twenty million cells were used per FAIRE experiment. […]

Series [2] has as its system latent HIV-1 in CD4+ T cells from c-ART treated HIV-1 infected patients. Nature of the series: HIV latency reversal from patient samples (cell associated HIV Pol mRNA). It counts as cell-based, human. The procedure: 23. HIV latency reversal from patient samples: All patients were older than 18 years, c-ART treated for at least 3 years, and their viral loads were below 50 copies/ml for more than 12 months with no blips in the past two years. CD4+ T cells from aviremic HIV+ patients were isolated as described previously^55 with minor modifications. Briefly, frozen PBMCs were cultured in RPMI medium over-night to recover. Then next day CD4+ T cells were isolated twice (enriched CD4+ T cells were subjected to a second round of CD4+ T cell enrichment) and left for 6 hrs to recover. Three million cells were treated with DMSO, 10 μM BRD-K80443127, 200 nM Prostratin, 10 μM BRD-K80443127 and 200 nM prostratin, and αCD3/CD28 magnetic beads (at cell:bead ration 1:1) as a positive control in triplicate. After 24 hours cells were lysed in TRIreagent (Sigma), total RNA was isolated with Total RNA Zol-Out (A&A Biotechnology) kit and cDNA was synthetized using random primers and Superscript II Reverse Transcriptase (Life Technologies). Detection of cellular associated pol RNA was performed as described previously (Pol: For […] (SEQ ID NO:15), Rev-[…] (SEQ ID NO: 16))^55. This study was conducted in accordance with the ethical principles of the Declaration of Helsinki. HIV-1 infected patient volunteers were informed and provided signed consent to participate in the study. The study protocol was approved by The Netherlands Medical Ethics Committee (MEC-2012-583). cDNA generated from control and 10 μM BRD-K80443127 treated samples was used to assess expression of BAF target genes biomarker genes-p21 and C-MYC.

Entries after “also recorded” stand apart in the source; their conditions may differ.

As to `CO[C@H]1CN(C)C(=O)c2cc(NC(=O)OC(C)C)ccc2OC[C@H](C)N(Cc2ccc(-c3ccccn3)cc2)C[C@@H]1C` [BRD-K80443127], the “CD25 and CD69 expression” value in series [1] was “no effect”. Moreover, in series [2] (Patient 1 (one patient), single agents, 24 hours), the “cell associated HIV mRNA (Pol), response” value is “responded; also recorded: significant increase”. For the same molecule, the “potentiation of prostratin activity” value in series [2] (all three patients) is “significant potentiation of prostratin activity”. Moreover, in series [2] (patient 2 and 3, 24 hours), the “cell associated HIV-1 POL” value is given as “did not result in a significant increase”.

The record behind these values is US11980613B2, “Methods for reversing HIV latency using BAF complex modulating compounds” (priority 2018, dated 2024).
